From article PMC5748433, “Study on the effect of EMD386088, a 5-HT6 receptor partial agonist, in enhancing the anti-immobility action of some antidepressants in rats” (Naunyn-Schmiedeberg's Archives of Pharmacology, 2017)

Test system: rats
Experiment: Open field (OF) test in rats, locomotor/exploratory activity
Type: in vivo, rat
Settings: 5-min session, mean ± SEM
Procedure: All drugs were dissolved in distilled water immediately before administration in a volume of 2 mL/kg. All the compounds were administered intraperitoneally (i.p.). […] Control animals received vehicle according to the same schedule.
The experiment was performed using Motor Monitor System (Campden Instruments, Ltd., UK) consisted of two SmartFrame Open Field stations (40 × 40 × 38 cm) with 16 × 16 beams, located in sound attenuating chambers and connected to PC software by control chassis. Individual vehicle- or drug-injected animals were gently placed in the center of the station. An automated motor monitor system recorded ambulation (the number of crossings in X and Y axis), the number of rearing episodes, and total distance covered by a rat for 5 min.
The data of behavioral studies were evaluated using two-way analysis of variance (ANOVA) followed by Bonferroni’s post hoc test, p < 0.05 was considered significant.

[1] = 10 mg/kg i.p. (s-citalopram 30 min, moclobemide and bupropion 60 min before test)
[2] = 15 mg/kg i.p. 30 min before test

Row | SMILES | Exploratory activity Ambulation X [1] | Exploratory activity Ambulation Y [1] | Exploratory activity Rearings [1] | Exploratory activity Total distance (cm) [1] [cm] | Exploratory activity Ambulation Y [2] | Exploratory activity Rearings [2] | Exploratory activity Total distance (cm) [2] [cm]
1 | CC(NC(C)(C)C)C(=O)c1cccc(Cl)c1 (centres unmarked) [bupropion] | 284 ± 31 | 301 ± 35 | 83 ± 9 | 3083 ± 229 | – | – | –
2 | CN(C)CCCN1c2ccccc2CCc2ccccc21 [imipramine] | – | – | – | – | 203 ± 41 | 54 ± 3 | 2212 ± 332
3 | O=C(NCCN1CCOCC1)c1ccc(Cl)cc1 [moclobemide] | 200 ± 26 | 192 ± 23 | 62 ± 3 | 2160 ± 183 | – | – | –
4 | CN(C)CCC[C@@]1(c2ccc(F)cc2)OCc2cc(C#N)ccc21 [s-citalopram] | 197 ± 15 | 179 ± 19 | 64 ± 12 | – | – | – | –
